# Data taken from patent US6893633B2, “Methods and compositions for promoting the maturation of monocytes” (Maxim Pharmaceuticals, Inc., priority 2000, dated 2005).
# Legend:
# [1] = tested on: CD86 antigen on human monocytes; experiment: CD86 antigen expression on human monocytes after treatment with histamine and/or GM-CSF; type: cell-based
# Text: Separation of monocytes. […] Hospital, Göteborg, Sweden. […] Treatment and cell staining.
# [2] = tested on: CD3+ T cells, CD3-/56+ NK cells, and CD3+/56+ NK/T cells; details: apoptosis induced by autologous MO or GR; p<0.001
# Text: (§1) In human liver, NK-cells as well as NK/T-cells are much more abundant than in peripheral blood. […] All data are the mean±s.e.m. (n=15-30 blood donors).
# prostate cancer = details: histamine dihydrochloride 4 mg/day with CSF 300,000 U/kg/day and IL-12 100,000 U/kg/day
# Procedure: A subject presenting with prostate cancer is administered 300,000 U/kg/day of CSF, 100,000 U/kg/day of IL-12, and histamine dihydrochloride at a dose of 4 mg/day.
# [3] = tested on: monocytes HLA-DR expression
# Plasmodia species = experiment: Treatment of malaria infection; type: in vivo; details: serotonin 6 mg/day with GM-CSF 100,000 U/kg/day, parenteral
# Procedure: A subject presenting with malaria is parenterally administered GM-CSF at a rate of 100,000 U/kg/day and serotonin at a dosage of 6 mg/day. The composition acts to enhance monocyte maturation, thereby allowing the subject's immune system to eradicate cells infected with Plasmodia species. Specifically, serotonin enhances the monocyte maturation-promoting activity of […]. An increase in the number of dendritic cells presenting antigens associated with Plasmodia is observed. T-cells recognize the Plasmodia antigens, as foreign, attack, and kill the cells. The number of infected cells decreases.
# malignant melanoma = details: melanoma patients with stage III or stage IV disease; cited from earlier work
# NK cells = details: human, 25 μM
# Text: as §1
# NK/T cells = details: human, 25 μM
# Text: as §1
# T cells = details: human, 25 μM
# Text: as §1
# [4] = tested on: metastatic melanoma of the liver; details: histamine phosphate 10 mg/day with G-CSF 200,000 U/kg/day
# Procedure: A subject presenting with metastatic melanoma of the liver is administered 200,000 U/kg/day of G-CSF and histamine phosphate at a dose of 10 mg/day.
compound,measurement,setting,value
"Cl.Cl.NCCc1c[nH]cn1 [histamine, histamine dihydrochloride]",intensity of cell surface expression of CD86,[1]; histamine treatment alone,moderately enhanced
same,prevention of apoptosis in all cell types,[2],significantly prevented
same,tumor mass,prostate cancer,decrease
same,monocytes HLA-DR expression,[3],up-regulated
NCCc1c[nH]c2ccc(O)cc12 [serotonin],number of dendritic cells presenting antigens associated with Plasmodia,Plasmodia species,increase
same,number of infected cells,Plasmodia species,decreases
granulocyte-macrophage colony-stimulating factor [GM-CSF],mean of the monocytes that expressed CD86,"[1]; overnight incubation (16 hrs), GM-CSF 0.15 μg/ml, histamine dihydrochloride 10 μM",88%
same,median survival time vs matched control patients,malignant melanoma,increased by a factor of three
OO [hydrogen peroxide],NK cells that became apoptotic,NK cells,65±7%
same,NK/T cells that became apoptotic,NK/T cells,78±7%
same,T cells that became apoptotic,T cells,35±5%
NCCc1c[nH]cn1.O=P(O)(O)O [histamine phosphate],tumor mass,[4],decrease
